Test results reported in the supplement of paper PMC10307832.

Key:
Assay in all cases: relative viability (nuclei count vs DMSO), 5 days (fraction); higher = more cells survive
SK-LU-1 = system: SK-LU-1
How it was run: (§1)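 Cells from lung cancer lines were seeded into 1536-well plates and, one day later, dosed by pin tool. Treatments were either a single drug or a fixed dose of an anchor drug with five library-drug doses (not always all listed) in √10 steps. After 5 days, nuclei were stained in a one-step fixation (final 0.05% Triton X-100, 1% formaldehyde, 1 ug/ml Hoechst) and counted on 4× images, and relative viability is the treated-to-vehicle nuclei ratio, as the median of duplicate plates.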

NCI-H1734 = system: NCI-H1734
How it was run: as §1

ABC-1 = system: ABC-1
How it was run: as §1

NCI-H1651 = system: NCI-H1651
How it was run: as §1

RERF-LC-KJ = system: RERF-LC-KJ
How it was run: as §1

EMC-BAC-2 = system: EMC-BAC-2
How it was run: as §1

NCI-H1755 = system: NCI-H1755
How it was run: as §1

HCC-366 = system: HCC-366
How it was run: as §1

NCI-H727 = system: NCI-H727
How it was run: as §1

NCI-H2347 = system: NCI-H2347
How it was run: as §1

NCI-H1650 = system: NCI-H1650
How it was run: as §1

PC-3 [JPC-3] = system: PC-3 [JPC-3]
How it was run: as §1

NCI-H1437 = system: NCI-H1437
How it was run: as §1

CAL-12T = system: CAL-12T
How it was run: as §1

NCI-H3122 = system: NCI-H3122
How it was run: as §1

COR-L23 = system: COR-L23
How it was run: as §1

UMC-11 = system: UMC-11
How it was run: as §1

HARA = system: HARA
How it was run: as §1

LK-2 = system: LK-2
How it was run: as §1

NCI-H596 = system: NCI-H596
How it was run: as §1

HOP-62 = system: HOP-62
How it was run: as §1

NCI-H1563 = system: NCI-H1563
How it was run: as §1

`Cc1csc(=NC2CCCCC2)n1/N=C/c1ccc(O)c(O)c1O` [MIM1] + CS(=O)(=O)CCNCc1ccc(-c2ccc3ncnc(Nc4ccc(OCc5cccc(F)c5)c(Cl)c4)c3c2)o1 [Lapatinib] (partner 2 µM) showed a relative viability (SK-LU-1; first compound 0.2 µM) of 0.825, a relative viability (SK-LU-1; first compound 0.6325 µM) of 0.839 and a relative viability (SK-LU-1; first compound 2 µM) of 0.791. It also gave a relative viability (SK-LU-1; first compound 6.325 µM) of 0.72, a relative viability (SK-LU-1; first compound 20 µM) of 0.325 and a relative viability (NCI-H1734; first compound 0.2 µM) of 1.18. For the same compound, the relative viability (NCI-H1734; first compound 0.6325 µM) was 0.874, the relative viability (NCI-H1734; first compound 2 µM) was 0.971 and the relative viability (NCI-H1734; first compound 6.325 µM) was 0.823. It also gave a relative viability (NCI-H1734; first compound 20 µM) of 0.198, a relative viability (ABC-1; first compound 0.2 µM) of 1.32 and a relative viability (ABC-1; first compound 0.6325 µM) of 1.24. The relative viability (ABC-1; first compound 2 µM) was 1.31, the relative viability (ABC-1; first compound 6.325 µM) was 1.06 and the relative viability (ABC-1; first compound 20 µM) was 1.11. For the same compound, the relative viability (NCI-H1651; first compound 0.2 µM) was 0.883, the relative viability (NCI-H1651; first compound 0.6325 µM) was 0.854 and the relative viability (NCI-H1651; first compound 2 µM) was 0.95. The relative viability (NCI-H1651; first compound 6.325 µM) was 0.655, the relative viability (NCI-H1651; first compound 20 µM) was 0.274 and the relative viability (RERF-LC-KJ; first compound 0.2 µM) was 0.769. The relative viability (RERF-LC-KJ; first compound 0.6325 µM) was 0.772, the relative viability (RERF-LC-KJ; first compound 2 µM) was 0.795 and the relative viability (RERF-LC-KJ; first compound 6.325 µM) was 0.75. The relative viability (RERF-LC-KJ; first compound 20 µM) was 0.3, the relative viability (EMC-BAC-2; first compound 0.2 µM) was 0.861 and the relative viability (EMC-BAC-2; first compound 0.6325 µM) was 0.713. For the same compound, the relative viability (EMC-BAC-2; first compound 2 µM) was 0.869, the relative viability (EMC-BAC-2; first compound 6.325 µM) was 0.828 and the relative viability (EMC-BAC-2; first compound 20 µM) was 0.212. It also gave a relative viability (NCI-H1755; first compound 0.2 µM) of 1.04, a relative viability (NCI-H1755; first compound 0.6325 µM) of 0.973 and a relative viability (NCI-H1755; first compound 2 µM) of 1.03. It also gave a relative viability (NCI-H1755; first compound 6.325 µM) of 0.722, a relative viability (NCI-H1755; first compound 20 µM) of 0.251 and a relative viability (HCC-366; first compound 0.2 µM) of 1.01. It also gave a relative viability (HCC-366; first compound 0.6325 µM) of 0.905, a relative viability (HCC-366; first compound 2 µM) of 0.741 and a relative viability (HCC-366; first compound 6.325 µM) of 0.548. It also gave a relative viability (HCC-366; first compound 20 µM) of 0.0188, a relative viability (NCI-H727; first compound 0.2 µM) of 0.852 and a relative viability (NCI-H727; first compound 0.6325 µM) of 0.969. The relative viability (NCI-H727; first compound 2 µM) was 0.733, the relative viability (NCI-H727; first compound 6.325 µM) was 0.745 and the relative viability (NCI-H727; first compound 20 µM) was 0.257. The relative viability (NCI-H2347; first compound 0.2 µM) was 0.941, the relative viability (NCI-H2347; first compound 0.6325 µM) was 1.07 and the relative viability (NCI-H2347; first compound 2 µM) was 0.999. The relative viability (NCI-H2347; first compound 6.325 µM) was 0.59, the relative viability (NCI-H2347; first compound 20 µM) was 0.399 and the relative viability (NCI-H1650; first compound 0.2 µM) was 0.788. It also gave a relative viability (NCI-H1650; first compound 0.6325 µM) of 0.566, a relative viability (NCI-H1650; first compound 2 µM) of 0.565 and a relative viability (NCI-H1650; first compound 6.325 µM) of 0.204. It also gave a relative viability (NCI-H1650; first compound 20 µM) of 0.148, a relative viability (PC-3 [JPC-3]; first compound 0.2 µM) of 0.486 and a relative viability (PC-3 [JPC-3]; first compound 0.6325 µM) of 0.505. The relative viability (PC-3 [JPC-3]; first compound 2 µM) was 0.424, the relative viability (PC-3 [JPC-3]; first compound 6.325 µM) was 0.45 and the relative viability (PC-3 [JPC-3]; first compound 20 µM) was 0.46. For the same compound, the relative viability (NCI-H1437; first compound 0.2 µM) was 0.761, the relative viability (NCI-H1437; first compound 0.6325 µM) was 0.672 and the relative viability (NCI-H1437; first compound 2 µM) was 0.91. For the same compound, the relative viability (NCI-H1437; first compound 6.325 µM) was 0.456, the relative viability (NCI-H1437; first compound 20 µM) was 0.148 and the relative viability (CAL-12T; first compound 0.2 µM) was 0.615. The relative viability (CAL-12T; first compound 2 µM) was 0.754, the relative viability (CAL-12T; first compound 6.325 µM) was 0.578 and the relative viability (CAL-12T; first compound 20 µM) was 0.22. For the same compound, the relative viability (NCI-H3122; first compound 0.2 µM) was 1.02, the relative viability (NCI-H3122; first compound 0.6325 µM) was 1.07 and the relative viability (NCI-H3122; first compound 2 µM) was 1.01. It also gave a relative viability (NCI-H3122; first compound 6.325 µM) of 0.859, a relative viability (NCI-H3122; first compound 20 µM) of 0.304 and a relative viability (COR-L23; first compound 0.2 µM) of 0.931. The relative viability (COR-L23; first compound 0.6325 µM) was 1.07, the relative viability (COR-L23; first compound 2 µM) was 0.844 and the relative viability (COR-L23; first compound 6.325 µM) was 0.619. It also gave a relative viability (COR-L23; first compound 20 µM) of 0.286, a relative viability (UMC-11; first compound 0.2 µM) of 1.22 and a relative viability (UMC-11; first compound 2 µM) of 1.17. The relative viability (UMC-11; first compound 6.325 µM) was 0.664, the relative viability (UMC-11; first compound 20 µM) was 0.181 and the relative viability (HARA; first compound 0.2 µM) was 0.615. The relative viability (HARA; first compound 0.6325 µM) was 0.662, the relative viability (HARA; first compound 2 µM) was 0.821 and the relative viability (HARA; first compound 6.325 µM) was 0.55. It also gave a relative viability (HARA; first compound 20 µM) of 0.128, a relative viability (LK-2; first compound 0.2 µM) of 0.911 and a relative viability (LK-2; first compound 0.6325 µM) of 0.881. It also gave a relative viability (LK-2; first compound 2 µM) of 0.697, a relative viability (LK-2; first compound 6.325 µM) of 0.835 and a relative viability (LK-2; first compound 20 µM) of 0.268. It also gave a relative viability (NCI-H596; first compound 0.2 µM) of 1.13, a relative viability (NCI-H596; first compound 0.6325 µM) of 1.16 and a relative viability (NCI-H596; first compound 2 µM) of 1.07. For the same compound, the relative viability (NCI-H596; first compound 6.325 µM) was 0.932, the relative viability (NCI-H596; first compound 20 µM) was 0.733 and the relative viability (HOP-62; first compound 0.2 µM) was 0.929. The relative viability (HOP-62; first compound 0.6325 µM) was 0.864, the relative viability (HOP-62; first compound 2 µM) was 0.414 and the relative viability (HOP-62; first compound 6.325 µM) was 0.843. For the same compound, the relative viability (HOP-62; first compound 20 µM) was 0.158, the relative viability (NCI-H1563; first compound 0.2 µM) was 0.903 and the relative viability (NCI-H1563; first compound 0.6325 µM) was 1.04. The relative viability (NCI-H1563; first compound 2 µM) was 0.853, the relative viability (NCI-H1563; first compound 6.325 µM) was 0.825 and the relative viability (NCI-H1563; first compound 20 µM) was 0.462.
